Experimental data: patent US20220042033A1, “COMPOSITION AND METHOD FOR CONFERRING AND/OR ENHANCING TOLERANCE AGAINST HERBICIDES BY USING VARIANTS OF PPO” (FarmHannong Co., Ltd., priority 2017, published 2022)

Assays:
Assay type in all cases: cell-based
[1] = tested on: E. coli BT3(ΔPPO) transformed with Auxenochlorella protothecoides ApPPO1 wild type, SEQ ID NO: 1; assay: Herbicide tolerance test in PPO-deficient E. coli BT3(ΔPPO), growth on plates; conditions: ApPPO1 WT, Table 7; light, 37° C., 16 to 20 hours; vs wild type at highest herbicide concentration
Protocol: (§1) Then, the extent of tolerance was evaluated.

[2] = tested on: E. coli BT3(ΔPPO) transformed with Auxenochlorella protothecoides ApPPO1 (SEQ ID NO: 1) variant V360M (VM); assay: as above; conditions: Table 7, light, 37° C., 16 to 20 hours, vs wild type at highest herbicide concentration
Protocol: (§2) The mutated CyPPO gene obtained from the Example 2 was transformed to BT3 (ΔPPO) strain which is deficient of PPO activity and cultured in LB media with PPO-inhibiting herbicide, thereby examining whether growth of transformed BT3 was not inhibited.
(§3) BT3 competent cells were transformed with the pET303-ApPPO1 and pET303-MxPPO plasmids and those with a mutation(s) constructed in Example 2 respectively, and were cultured in LB agar media containing carbenicillin (Gold Biotechnology, Co., Ltd.).
(§4) Single colony of E. coli transformed with each CyPPO gene was cultured in 3 ml of LB broth containing carbenicillin overnight, and then was subcultured until absorbance (OD600) reached 0.5 to 1. Then, it was diluted with LB broth to OD600=0.5. Again, the diluted solution was serially diluted 4 times by a factor of one tenth.
(§5) The LB agar media (LB 25 g/l, Bacto agar 15 g/l) containing carbenicillin (100 μg/ml) and 0 to 4,000 μM of various herbicides dissolved in DMSO was prepared. Next, 10 μl of each diluted solution was dropped on the plate and cultured at 37° C. under light (Tables 7, 9 and 10, FIGS. 2 to 6, 13 to 20) or dark (Tables 8 and 11, FIGS. 7 to 12, 21 to 24) for 16 to 20 hours. Then, the extent of tolerance was evaluated.
(§6) The extent of herbicide tolerance of the ApPPO1 or MxPPO mutated genes was evaluated by comparing that of mutated genes with that of ApPPO1 or MxPPO wild type. The relative tolerance was represented with “+” as a factor of 10 times.
(§7) In Tables 7 to 11, tolerance level was presented as ‘−’ of tolerance of wild type and of variants equivalent to that of wild type, and was done as ‘+’ per each 10 fold resistance until ‘+++++’ as maximal resistance. […] A dilution series (OD600=0.5, 0.05, 0.005, 0.0005, 0.00005) was made and spotted on LB agar plates supplemented with herbicides.

[3] = tested on: E. coli BT3(ΔPPO) transformed with Auxenochlorella protothecoides ApPPO1 (SEQ ID NO: 1) variant A215C (AC); assay: as above; conditions: Table 7, light, 37° C., 16 to 20 hours, vs wild type at highest herbicide concentration
Protocol: as §2, §3, §4, §5, §6, §7

[4] = tested on: E. coli BT3(ΔPPO) transformed with Auxenochlorella protothecoides ApPPO1 (SEQ ID NO: 1) variant Y422I (YI); conditions: Table 7, light, 37° C., 16 to 20 hours, vs wild type at highest herbicide concentration
Protocol: as §2, §3, §4, §5, §6, §7

[5] = tested on: E. coli BT3(ΔPPO) transformed with Auxenochlorella protothecoides ApPPO1 (SEQ ID NO: 1) variant Y422C (YC); assay: Herbicide tolerance test in PPO-deficient E. coli BT3(ΔPPO), growth on plates; conditions: Table 7, light, 37° C., 16 to 20 hours, vs wild type at highest herbicide concentration
Protocol: as §2, §3, §4, §5, §6, §7

[6] = tested on: E. coli BT3(ΔPPO) transformed with Auxenochlorella protothecoides ApPPO1 (SEQ ID NO: 1) variant Y422M (YM); assay: as above; conditions: Table 7, light, 37° C., 16 to 20 hours, vs wild type at highest herbicide concentration
Protocol: as §2, §3, §4, §5, §6, §7

[7] = tested on: E. coli BT3(ΔPPO) transformed with Auxenochlorella protothecoides ApPPO1 (SEQ ID NO: 1) variant Y422T (YT); assay: as above; conditions: Table 7, light, 37° C., 16 to 20 hours, vs wild type at highest herbicide concentration
Protocol: as §2, §3, §4, §5, §6, §7

[8] = tested on: E. coli BT3(ΔPPO) transformed with Auxenochlorella protothecoides ApPPO1 (SEQ ID NO: 1) variant A215L (AL); assay: as above; conditions: Table 7, light, 37° C., 16 to 20 hours, vs wild type at highest herbicide concentration
Protocol: as §2, §3, §4, §5, §6, §7

[9] = tested on: E. coli BT3(ΔPPO) transformed with Auxenochlorella protothecoides ApPPO1 (SEQ ID NO: 1) variant Y422L (YL); assay: as above; conditions: Table 7, light, 37° C., 16 to 20 hours, vs wild type at highest herbicide concentration
Protocol: as §2, §3, §4, §5, §6, §7

[10] = tested on: E. coli BT3(ΔPPO) transformed with Myxococcus xanthus MxPPO (SEQ ID NO: 3) variant A170L; assay: as above; conditions: Table 9, light, tiafenacil to 2000 μM, saflufenacil to 200 μM, flumioxazin to 100 μM
[11] = tested on: E. coli BT3(ΔPPO) transformed with Myxococcus xanthus MxPPO wild type, SEQ ID NO: 3; assay: as above; conditions: MxPPO WT, Table 9; light; tiafenacil to 2000 μM, saflufenacil to 200 μM, flumioxazin to 100 μM
Protocol: as §1

[12] = tested on: E. coli BT3(ΔPPO) transformed with Myxococcus xanthus MxPPO (SEQ ID NO: 3) variant I311M; assay: as above; conditions: Table 9, light, tiafenacil to 2000 μM, saflufenacil to 200 μM, flumioxazin to 100 μM
Protocol: as §2, §3, §4, §5
(§8) The extent of herbicide tolerance of the ApPPO1 or MxPPO mutated genes was evaluated by comparing that of mutated genes with that of ApPPO1 or MxPPO wild type. […]

[13] = tested on: E. coli BT3(ΔPPO) transformed with Myxococcus xanthus MxPPO (SEQ ID NO: 3) variant M365V; assay: as above; conditions: Table 9, light, tiafenacil to 2000 μM, saflufenacil to 200 μM, flumioxazin to 100 μM
Protocol: as §2, §3, §4, §5, §8

[14] = tested on: E. coli BT3(ΔPPO) transformed with Myxococcus xanthus MxPPO (SEQ ID NO: 3) variant M365L; assay: as above; conditions: Table 9, light, tiafenacil to 2000 μM, saflufenacil to 200 μM, flumioxazin to 100 μM
Protocol: as §2, §3, §4, §5, §8

[15] = tested on: E. coli BT3(ΔPPO) transformed with Myxococcus xanthus MxPPO (SEQ ID NO: 3) variant M365I; assay: as above; conditions: Table 9, light, tiafenacil to 2000 μM, saflufenacil to 200 μM, flumioxazin to 100 μM
Protocol: as §2, §3, §4, §5, §8

[16] = tested on: E. coli BT3(ΔPPO) transformed with Myxococcus xanthus MxPPO (SEQ ID NO: 3) variant A170C; assay: as above; conditions: Table 9, light, tiafenacil to 2000 μM, saflufenacil to 200 μM, flumioxazin to 100 μM
Protocol: as §2, §3, §4, §5, §8

Structure (SMILES) | relative herbicide tolerance level [1] | relative herbicide tolerance level [2] | relative herbicide tolerance level [3] | relative herbicide tolerance level [4] | relative herbicide tolerance level [5] | relative herbicide tolerance level [6] | relative herbicide tolerance level [7] | relative herbicide tolerance level [8] | relative herbicide tolerance level [9] | relative herbicide tolerance level [10] | relative herbicide tolerance level [11] | relative herbicide tolerance level [12] | relative herbicide tolerance level [13] | relative herbicide tolerance level [14] | relative herbicide tolerance level [15] | relative herbicide tolerance level [16]
CC(C)=C1OC(=O)N(c2cc(OC3CCCC3)c(Cl)cc2F)C1=O [pentoxazone] | − | + (1-9 fold higher tolerance) | + (1-9 fold higher tolerance) | ++ (10-99 fold higher tolerance) | +++ (100-999 fold higher tolerance) |  |  |  |  |  |  |  |  |  |  | 
CS(=O)(=O)NC(=O)c1cc(Oc2ccc(C(F)(F)F)cc2Cl)ccc1[N+](=O)[O-] [Fomesafen, fomesafen] | − | + (1-9 fold higher tolerance) | + (1-9 fold higher tolerance) | + (1-9 fold higher tolerance) | ++ (10-99 fold higher tolerance) | + (1-9 fold higher tolerance) | + (1-9 fold higher tolerance) | +++ (100-999 fold higher tolerance) | + (1-9 fold higher tolerance) |  |  |  |  |  |  | 
O=C(O)c1cc(Oc2ccc(C(F)(F)F)cc2Cl)ccc1[N+](=O)[O-] [acifluorfen] | − | ++ (10-99 fold higher tolerance) | ++ (10-99 fold higher tolerance) | + (1-9 fold higher tolerance) | ++ (10-99 fold higher tolerance) | ++ (10-99 fold higher tolerance) | + (1-9 fold higher tolerance) | +++ (100-999 fold higher tolerance) | ++ (10-99 fold higher tolerance) |  |  |  |  |  |  | 
CCOC(=O)COc1cc(-c2nn(C)c(OC(F)F)c2Cl)c(F)cc1Cl [pyraflufenethyl, pyraflufen-ethyl] | − |  |  | ++ (10-99 fold higher tolerance) | +++ (100-999 fold higher tolerance) |  |  | +++ (100-999 fold higher tolerance) |  |  |  |  |  |  |  | 
C#CCN(C)c1c(C#N)cnn1-c1nn2c(c1Cl)CCCC2 [pyraclonil] | − | + (1-9 fold higher tolerance) | + (1-9 fold higher tolerance) | + (1-9 fold higher tolerance) | ++ (10-99 fold higher tolerance) | ++ (10-99 fold higher tolerance) | + (1-9 fold higher tolerance) | ++ (10-99 fold higher tolerance) | ++ (10-99 fold higher tolerance) |  |  |  |  |  |  | 
CC(C)N(C)S(=O)(=O)NC(=O)c1cc(-n2c(=O)cc(C(F)(F)F)n(C)c2=O)c(F)cc1Cl [saflufenacil] | − | +++ (100-999 fold higher tolerance) | + (1-9 fold higher tolerance) | +++++ (more than 10,000 fold higher tolerance) | +++ (100-999 fold higher tolerance) | +++++ (more than 10,000 fold higher tolerance) | ++++ (1,000-9,999 fold higher tolerance) | ++++ (1,000-9,999 fold higher tolerance) | ++++ (1,000-9,999 fold higher tolerance) | ++ (10-99 fold higher tolerance) | − | ++ (10-99 fold higher tolerance) | +++ (100-999 fold higher tolerance) | ++ (10-99 fold higher tolerance) | ++ (10-99 fold higher tolerance) | +++ (100-999 fold higher tolerance)
